In US10125138B2, “Triazolotriazinone derivatives having activity a s herbicides” (Syngenta Participations AG, priority 2015, dated 2018):

Assays:
Format in all cases: in vivo
Settings in all cases: 1000 g/h, evaluated after 13 days, five point scale
Lolium perenne (LOLPE) [1] = assay: Post-emergence glasshouse herbicide test, Lolium perenne
Experimental: (§1) Seeds of a variety of test species are sown in standard soil in pots (Lolium perenne (LOLPE), Solanum nigrum (SOLNI), Amaranthus retoflexus (AMARE), Setaria faberi (SETFA), Echinochloa crus-galli (ECHCG), Ipomoea hederacea (IPOHE)). After cultivation for one day (pre-emergence) or after 8 days cultivation (post-emergence) under controlled conditions in a glasshouse (at 24/16° C., day/night; 14 hours light; 65% humidity), the plants are sprayed with an aqueous spray solution derived from the formulation of the technical active ingredient in acetone/water (50:50) solution containing 0.5% Tween 20 (polyoxyethelyene sorbitan monolaurate, CAS RN 9005-64-5). […] The test plants are then grown in a glasshouse under controlled conditions in a glasshouse (at 24/16° C., day/night; 14 hours light; 65% humidity) and watered twice daily. After 13 days for pre and post-emergence, the test is evaluated for the percentage damage caused to the plant. The biological activities are shown in the following table on a five point scale (5=80-100%; 4=60-79%; 3=40-59%; 2=20-39%; 1=0-19%).

Solanum nigrum (SOLNI) [2] = assay: Post-emergence glasshouse herbicide test, Solanum nigrum
Experimental: (§2) Seeds of a variety of test species are sown in standard soil in pots (Lolium perenne (LOLPE), Solanum nigrum (SOLNI), Amaranthus retoflexus (AMARE), Setaria faberi (SETFA), Echinochloa crus-galli (ECHCG), Ipomoea hederacea (IPOHE)). After cultivation for one day (pre-emergence) or after 8 days cultivation (post-emergence) under controlled conditions in a glasshouse (at 24/16° C., day/night; 14 hours light; 65% humidity), the plants are sprayed with an aqueous spray solution derived from the formulation of the technical active ingredient in acetone/water (50:50) solution containing 0.5% Tween 20 (polyoxyethelyene sorbitan monolaurate, CAS RN 9005-64-5). Compounds are applied at 1000 g/h. The test plants are then grown in a glasshouse under controlled conditions in a glasshouse (at 24/16° C., day/night; 14 hours light; 65% humidity) and watered twice daily. After 13 days for pre and post-emergence, the test is evaluated for the percentage damage caused to the plant. The biological activities are shown in the following table on a five point scale (5=80-100%; 4=60-79%; 3=40-59%; 2=20-39%; 1=0-19%).

[3] = system: Amaranthus retoflexus (AMARE); assay: Post-emergence glasshouse herbicide test, Amaranthus retoflexus
Experimental: as §1

Setaria faberi (SETFA) [4] = assay: Post-emergence glasshouse herbicide test, Setaria faberi
Experimental: as §1

[5] = system: Echinochloa crus-galli (ECHCG); assay: Post-emergence glasshouse herbicide test, Echinochloa crus-galli
Experimental: as §1

[6] = system: Ipomoea hederacea (IPOHE); assay: Post-emergence glasshouse herbicide test, Ipomoea hederacea
Experimental: as §1

Lolium perenne (LOLPE) [7] = assay: Pre-emergence glasshouse herbicide test, Lolium perenne
Experimental: as §1

Solanum nigrum (SOLNI) [8] = assay: Pre-emergence glasshouse herbicide test, Solanum nigrum
Experimental: as §2

[9] = system: Amaranthus retoflexus (AMARE); assay: Pre-emergence glasshouse herbicide test, Amaranthus retoflexus
Experimental: as §1

Setaria faberi (SETFA) [10] = assay: Pre-emergence glasshouse herbicide test, Setaria faberi
Experimental: as §1

[11] = system: Echinochloa crus-galli (ECHCG); assay: Pre-emergence glasshouse herbicide test, Echinochloa crus-galli
Experimental: as §1

[12] = system: Ipomoea hederacea (IPOHE); assay: Pre-emergence glasshouse herbicide test, Ipomoea hederacea
Experimental: as §1

| Structure (SMILES) | percentage damage caused to the plant, POST Application LOLPE (Lolium perenne (LOLPE) [1]) | percentage damage caused to the plant, POST Application SOLNI (Solanum nigrum (SOLNI) [2]) | percentage damage caused to the plant, POST Application AMARE [3] | percentage damage caused to the plant, POST Application SETFA (Setaria faberi (SETFA) [4]) | percentage damage caused to the plant, POST Application ECHCG [5] | percentage damage caused to the plant, POST Application IPOHE [6] | percentage damage caused to the plant, PRE Application LOLPE (Lolium perenne (LOLPE) [7]) | percentage damage caused to the plant, PRE Application SOLNI (Solanum nigrum (SOLNI) [8]) | percentage damage caused to the plant, PRE Application AMARE [9] | percentage damage caused to the plant, PRE Application SETFA (Setaria faberi (SETFA) [10]) | percentage damage caused to the plant, PRE Application ECHCG [11] | percentage damage caused to the plant, PRE Application IPOHE [12] |
| --- | --- | --- | --- | --- | --- | --- | --- | --- | --- | --- | --- | --- |
| CCn1nnnc1NC(=O)c1nn2cnn(-c3ccc(OC)cc3)c2nc1=O [Compound 1.034] | 4 (4=60-79%) | 5 (5=80-100%) | 5 (5=80-100%) | 5 (5=80-100%) | 5 (5=80-100%) | 5 (5=80-100%) | 4 (4=60-79%) | 5 (5=80-100%) | 5 (5=80-100%) | 5 (5=80-100%) | 5 (5=80-100%) | 3 (3=40-59%) |
| CCCn1nnnc1NC(=O)c1nn2cnn(-c3ccc(OC)cc3)c2nc1=O [Compound 1.035] | 5 (5=80-100%) | 5 (5=80-100%) | 4 (4=60-79%) | 4 (4=60-79%) | 5 (5=80-100%) | 5 (5=80-100%) | 5 (5=80-100%) | 5 (5=80-100%) | 5 (5=80-100%) | 5 (5=80-100%) | 5 (5=80-100%) | 5 (5=80-100%) |
| CCCn1nnnc1NC(=O)c1nn2cnn(-c3cccc(OC)c3)c2nc1=O [Compound 1.036] | 5 (5=80-100%) | 5 (5=80-100%) | 5 (5=80-100%) | 5 (5=80-100%) | 4 (4=60-79%) | 5 (5=80-100%) | 5 (5=80-100%) | 5 (5=80-100%) | 5 (5=80-100%) | 5 (5=80-100%) | 5 (5=80-100%) | 4 (4=60-79%) |
| CCn1nnnc1NC(=O)c1nn2cnn(-c3ccc(F)cc3)c2nc1=O [Compound 1.037] | 4 (4=60-79%) | 5 (5=80-100%) | 5 (5=80-100%) | 5 (5=80-100%) | 5 (5=80-100%) | 4 (4=60-79%) | 4 (4=60-79%) | 5 (5=80-100%) | 5 (5=80-100%) | 5 (5=80-100%) | 5 (5=80-100%) | 5 (5=80-100%) |
| CCCn1nnnc1NC(=O)c1nn2cnn(-c3ccc(F)cc3)c2nc1=O [Compound 1.038] | 5 (5=80-100%) | 5 (5=80-100%) | 5 (5=80-100%) | 5 (5=80-100%) | 5 (5=80-100%) | 5 (5=80-100%) | 4 (4=60-79%) | 5 (5=80-100%) | 5 (5=80-100%) | 5 (5=80-100%) | 5 (5=80-100%) | 5 (5=80-100%) |
